{"source": "paper PMC11720011", "about": "“Single Disulfide Bond in Host Defense Thanatin Analog Peptides: Antimicrobial Activity, Atomic-Resolution Structures and Target Interactions” (International Journal of Molecular Sciences, 2024)", "molecules": {"B1": {"name": "VF16QK, disulfide-bonded 16-residue thanatin analog peptide (peptide)", "peptide": "VPIIYCNRRTKKCKRF", "HELM": "PEPTIDE1{V.P.I.I.Y.C.N.R.R.T.[dK].K.C.K.R.F.[am]}$PEPTIDE1,PEPTIDE1,6:R3-13:R3$$$V2.0; N-terminus assumed", "SMILES": "CC[C@H](C)[C@H](NC(=O)[C@@H](NC(=O)[C@@H]1CCCN1C(=O)[C@@H](N)C(C)C)[C@@H](C)CC)C(=O)N[C@@H](Cc1ccc(O)cc1)C(=O)N[C@H]1CSSC[C@@H](C(=O)N[C@@H](CCCCN)C(=O)N[C@@H](CCCNC(=N)N)C(=O)N[C@@H](Cc2ccccc2)C(N)=O)NC(=O)[C@H](CCCCN)NC(=O)[C@@H](CCCCN)NC(=O)[C@H]([C@@H](C)O)NC(=O)[C@H](CCCNC(=N)N)NC(=O)[C@H](CCCNC(=N)N)NC(=O)[C@H](CC(N)=O)NC1=O", "notes": "Analog of thanatin of Podisus maculiventris (21 residues) without its five N-terminal residues; also called VK16QK; source: synthetic peptide; bought: GL Biochem, Shanghai"}}, "key": {"[1]": {"system": "ATCC strains of E. coli, K. pneumoniae, S. enterica, S. pyogenes and E. faecalis", "assay_type": "cell-based", "conditions": "18 h", "experimental": "(§1) Antibacterial activities of the VF16QK and VF16QK^Ser peptides (GL Biochem, Shanghai, China) were determined using the broth dilution method. Bacterial strains of Escherichia coli ATCC 25922 (EC); Salmonella enterica ATCC 14028 (SE); Klebsiella pneumoniae ATCC 13883 (KP); Acinetobacter baumannii ATCC BAA-1798 (AB) Streptococcus pyogenes ATCC 19615 (SP) and Enterococcus faecalis ATCC 29212 (EF) were used for this study.\n(§2) Typically, overnight cultures of bacterial cells were grown to mid-log phase and diluted in 2X Mueller Hinton (MH) broth (Millipore-Sigma^TM, Saint Louis, MO, USA) to a final OD600 of 0.002. In a 96-well plate, 100 μL of the diluted bacterial solutions and 100 μL of the VF16QK and VF16QK^Ser peptides in concentrations ranging from 0.5 μM to 8 μM were incubated at 37 °C for 18 h."}, "[2]": {"system": "Klebsiella pneumoniae ATCC 13883 (KP)", "assay_type": "cell-based", "conditions": "ATCC 13883, 18 h", "experimental": "as §1, §2"}, "[3]": {"system": "Enterococcus faecalis ATCC 29212 (EF)", "assay_type": "cell-based", "conditions": "ATCC 29212, 18 h", "experimental": "as §1, §2"}, "[4]": {"system": "Escherichia coli ATCC 25922 (EC)", "assay_type": "cell-based", "conditions": "ATCC 25922, 18 h", "experimental": "as §1, §2"}, "[5]": {"system": "Streptococcus pyogenes ATCC 19615 (SP)", "assay_type": "cell-based", "conditions": "ATCC 19615, 18 h", "experimental": "as §1, §2"}, "[6]": {"system": "LPS-outer membrane of E. coli cells", "experiment": "Outer membrane permeabilization assay (NPN fluorescence)", "assay_type": "cell-based", "conditions": "E. coli cells OD600 ~0.5, 10 mM sodium phosphate, peptide 1 to 16 µM, excitation 350 nm, emission 390–450 nm; in words", "experimental": "(§3) Figure 1 (A) Fluorescence emission spectra of NPN as a function of concentrations of the VF16QK and VF16QK^ser peptides in E. coli cell solutions. 10 μM of fluorescence probes were prepared in 10 mM of sodium phosphate buffer with a fixed bacterial cell density of 0.5. Fluorescence spectra were recorded with an excitation wavelength of 350 nm and emission of 390–450 nm. (B) Plot showing z potential changes of E. coli cells as a function of concentrations, 2 to 32 μM, of the VF16QK and VF16QK peptides.\nVF16QK and VF16QK^Ser were assessed for their ability to permeabilize the LPS-outer membrane of E. coli cells by use of the fluorescence probe 1-N-phenylnapthylamine (NPN). Bacterial cells were prepared from a mid-log culture in 10 mM of sodium phosphate with an adjusted OD600 ~ 0.5. A basal fluorescence of […] NPN in bacterial suspension, in absence of peptide, was measured followed by sequential additions of peptides from 1 to 16 µM. Fluorescence experiments were conducted in a Cary Eclipse spectrophotometer (Varian, Palo Alto, CA, USA) using a 0.1 cm quartz cuvette. An excitation wavelength of 350 nm and emission was recorded from 390–450 nm."}, "[7]": {"molecular_target": "T1, LptAm, the periplasmic LPS transport protein of E. coli (Escherichia coli, UniProt P0ADV1)", "T1 construct": "His-tagged LptAm (residues 28–159) of E. coli; His-tag; made in house; host or cells: E. coli BL21", "experiment": "Isothermal titration calorimetry (ITC) with LptAm", "assay_type": "binding", "conditions": "in words", "experimental": "Figure 2 Isothermal titration calorimetry (ITC) of binding interactions of VF16QK with (A) LptAm, the periplasmic LPS transport protein of E. coli, and (B) the LPS-outer membrane. LptAm-peptide ITC studies were carried out in 50 mM of sodium phosphate buffer and 150 mM of NaCl at pH 7.0 and 25 °C. LptAm proteins in sample cells were titrated with 2 μL aliquots of peptides and the heat exchange was measured. For LPS–peptide interactions, LPS in sample cells were titrated with 2 μL aliquots of peptides in 10 mM of sodium phosphate buffer, pH 7.0, 37 °C.\nThe binding interactions of the thanatin peptides VF16QK and VF16QK^Ser with the LPS-outer membrane and LptAm were determined using ITC. LPS and peptide samples were prepared in 10 mM of sodium phosphate buffer, pH 7.0. Typically, twenty injections, or 2.0 μL of peptides (1 mM in syringe), were titrated into the sample cell containing LPS ([…]) at 37 °C with a stirring speed of 750 rpm. […] ITC data were analyzed following single site binding in Microcal origin 5.0 software to determine the association constant (Ka) and change of enthalpy (ΔH). The dissociation constant (Kd), change of free energy (ΔG) and change of entropy (TΔS) were calculated as: Kd = 1/Ka, ΔG = ΔH − TΔS, respectively. […]"}, "E. coli cells": {"system": "E. coli cells", "experiment": "Zeta potential measurements (surface charge neutralization)", "assay_type": "cell-based", "conditions": "10 mM sodium phosphate pH 7, peptide up to 32 μM, three replicates, in words", "experimental": "as §3\nZeta potential measurements were performed in a Zeta Sizer Nano ZS (Malvern Instruments, Worcestershire, UK) instrument equipped with a 633 nm He laser. Mid-log phase E. coli cultures were centrifuged at 5000 rpm for 10 min and prepared in 10 mM of sodium phosphate buffer, pH 7. Z potential values of bacterial cell suspension were obtained from 1 to 32 μM of the peptides in zeta cells with gold electrodes. For individual measurement, 100 runs were carried out and three replicates were performed."}, "[8]": {"molecular_target": "T2, LptAm, truncated functional deletion variant of the periplasmic LPS transport protein LptA of E. coli (E. coli, UniProt P0ADV1 28-159)", "T2 construct": "LptA of E. coli, residues 28-159 (LptAm); no removal of the His tag is told; also called His-tagged LptAm; source: E. coli BL21, purified (Ni-NTA, size-exclusion chromatography)", "T2 sequence (looked up)": "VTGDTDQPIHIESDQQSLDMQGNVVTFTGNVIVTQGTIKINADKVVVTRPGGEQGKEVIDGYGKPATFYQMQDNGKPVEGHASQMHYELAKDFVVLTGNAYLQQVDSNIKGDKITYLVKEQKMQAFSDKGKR", "experiment": "ITC; peptide (250 uM in syringe, 20 injections of 2 uL) titrated into LptAm in the sample cell (25 mM [sic]); 50 mM sodium phosphate, 150 mM NaCl, pH 7.0, 25 °C; single site binding fit", "conditions": "both partners purified"}}, "note": "Residues, ends and D or L forms follow the SMILES beside them."}
{"molecule": "CC[C@H](C)[C@H](NC(=O)[C@@H](NC(=O)[C@@H]1CCCN1C(=O)[C@@H](N)C(C)C)[C@@H](C)CC)C(=O)N[C@@H](Cc1ccc(O)cc1)C(=O)N[C@H]1CSSC[C@@H](C(=O)N[C@@H](CCCCN)C(=O)N[C@@H](CCCNC(=N)N)C(=O)N[C@@H](Cc2ccccc2)C(N)=O)NC(=O)[C@H](CCCCN)NC(=O)[C@@H](CCCCN)NC(=O)[C@H]([C@@H](C)O)NC(=O)[C@H](CCCNC(=N)N)NC(=O)[C@H](CCCNC(=N)N)NC(=O)[C@H](CC(N)=O)NC1=O", "note": "[VF16QK] (HELM PEPTIDE1{V.P.I.I.Y.C.N.R.R.T.[dK].K.C.K.R.F.[am]}$PEPTIDE1,PEPTIDE1,6:R3-13:R3$$$V2.0)", "values": [{"measurement": "MIC values over Gram-negative and Gram-positive bacterial strains", "setting": "[1]", "result": "1 to 4", "unit": "µM"}, {"measurement": "MIC, KP", "setting": "[2]", "result": "1 to 2", "unit": "µM"}, {"measurement": "MIC, EF", "setting": "[3]", "result": 1, "unit": "µM"}, {"measurement": "MIC, EC", "setting": "[4]", "result": "1 to 4", "unit": "µM"}, {"measurement": "MIC, SP", "setting": "[5]", "result": 1, "unit": "µM"}]}
{"molecule": "CC[C@H](C)[C@H](NC(=O)[C@@H](NC(=O)[C@@H]1CCCN1C(=O)[C@@H](N)C(C)C)[C@@H](C)CC)C(=O)N[C@@H](Cc1ccc(O)cc1)C(=O)N[C@@H](CO)C(=O)N[C@@H](CC(N)=O)C(=O)N[C@@H](CCCNC(=N)N)C(=O)N[C@@H](CCCNC(=N)N)C(=O)N[C@H](C(=O)N[C@H](CCCCN)C(=O)N[C@@H](CCCCN)C(=O)N[C@@H](CO)C(=O)N[C@@H](CCCCN)C(=O)N[C@@H](CCCNC(=N)N)C(=O)N[C@@H](Cc1ccccc1)C(N)=O)[C@@H](C)O", "note": "[VF16QK^Ser] (HELM PEPTIDE1{V.P.I.I.Y.S.N.R.R.T.[dK].K.S.K.R.F.[am]}$$$$V2.0; N-terminus and C-terminus assumed)", "values": [{"measurement": "NPN fluorescence emission (LPS-outer membrane permeabilization)", "setting": "[6]", "result": "significantly diminished LPS-outer membrane permeabilization"}, {"measurement": "nature of binding to LptAm (heat of exchange)", "setting": "[7]", "result": "endothermic binding"}, {"measurement": "neutralization of surface charge (zeta potential)", "setting": "E. coli cells", "result": "less effective"}, {"measurement": "MIC values over Gram-negative and Gram-positive bacterial strains", "setting": "[1]", "result": "> 16", "unit": "µM"}]}
{"molecule": "B1", "values": [{"measurement": "Kd", "setting": "[8]", "result": 400, "unit": "nM"}, {"measurement": "dH", "setting": "[8]", "result": -10.2, "unit": "kcal/mol"}]}
